# pIC50: −log10 of the molar value.
# Key:
# [1] = target: T1, Prostaglandin G/H synthase 2 (Homo sapiens, UniProt P35354); format: tissue-based, Blood
# T1 sequence (P35354 whole entry): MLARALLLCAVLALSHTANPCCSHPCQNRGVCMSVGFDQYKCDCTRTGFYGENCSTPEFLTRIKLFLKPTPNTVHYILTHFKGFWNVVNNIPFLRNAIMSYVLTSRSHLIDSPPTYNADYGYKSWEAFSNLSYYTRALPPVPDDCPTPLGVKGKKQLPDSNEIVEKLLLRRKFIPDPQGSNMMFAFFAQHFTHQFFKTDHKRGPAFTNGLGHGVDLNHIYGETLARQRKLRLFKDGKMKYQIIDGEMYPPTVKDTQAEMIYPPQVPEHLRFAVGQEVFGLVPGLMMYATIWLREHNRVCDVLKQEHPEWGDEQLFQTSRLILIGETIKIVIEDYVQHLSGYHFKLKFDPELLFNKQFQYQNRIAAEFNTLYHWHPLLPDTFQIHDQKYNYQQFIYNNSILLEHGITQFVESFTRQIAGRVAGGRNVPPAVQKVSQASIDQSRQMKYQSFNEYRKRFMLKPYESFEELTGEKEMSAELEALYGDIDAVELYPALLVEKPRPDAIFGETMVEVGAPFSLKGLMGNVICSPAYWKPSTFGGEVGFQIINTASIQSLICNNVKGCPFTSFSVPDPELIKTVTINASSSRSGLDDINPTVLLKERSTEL
# Description: In vitro inhibitory concentration against Prostaglandin G/H synthase 2 in human whole blood assay
# [2] = target: Prostaglandin G/H synthase 1 (Homo sapiens, UniProt P23219); assay: In vitro inhibitory concentration against Prostaglandin G/H synthase 1 in human whole blood assay; format: tissue-based
# Sequence of Prostaglandin G/H synthase 1 (P23219 whole entry): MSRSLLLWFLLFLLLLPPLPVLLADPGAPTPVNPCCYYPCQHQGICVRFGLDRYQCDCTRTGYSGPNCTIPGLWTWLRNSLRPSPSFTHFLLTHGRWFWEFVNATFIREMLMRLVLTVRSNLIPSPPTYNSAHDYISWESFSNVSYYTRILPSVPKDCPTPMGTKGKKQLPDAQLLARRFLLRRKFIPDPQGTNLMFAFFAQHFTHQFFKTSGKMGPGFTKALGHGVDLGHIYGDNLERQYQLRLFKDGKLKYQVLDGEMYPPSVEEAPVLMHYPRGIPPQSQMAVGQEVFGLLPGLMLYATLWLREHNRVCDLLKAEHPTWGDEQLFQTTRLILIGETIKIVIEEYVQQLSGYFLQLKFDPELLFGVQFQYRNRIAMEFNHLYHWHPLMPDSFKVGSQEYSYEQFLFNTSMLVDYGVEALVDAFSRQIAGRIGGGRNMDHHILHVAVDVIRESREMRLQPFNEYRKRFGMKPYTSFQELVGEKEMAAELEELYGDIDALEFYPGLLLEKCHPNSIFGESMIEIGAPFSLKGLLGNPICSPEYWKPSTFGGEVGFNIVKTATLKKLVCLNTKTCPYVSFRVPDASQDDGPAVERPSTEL
SMILES,pIC50 [1],pIC50 [2]
Cc1onc(-c2ccc(Cl)o2)c1-c1ccc(S(N)(=O)=O)cc1,< 4.00,< 4.00
COc1cc(OC)c(-c2noc(C)c2-c2ccc(S(N)(=O)=O)cc2)c(OC)c1Cl,< 4.00,< 4.00
Cc1onc(-c2ccc(Cl)o2)c1-c1ccccc1,< 4.00,
Cc1cc(C)c(-c2noc(C)c2-c2ccccc2)c(C)c1,< 4.00,< 4.00

# Other lines, results leading:
pIC50 [1],pIC50 [2],SMILES
< 4.00,< 4.00,Cc1cc(C)c(S(N)(=O)=O)c(C)c1-c1noc(C)c1-c1ccccc1
< 4.00,< 4.00,COc1cc(OC)c(-c2noc(C)c2-c2ccccc2)c(OC)c1
< 4.00,< 4.00,COc1cc(OC)c(-c2noc(C)c2-c2ccccc2)c(OC)c1Cl
< 4.00,< 4.00,Cc1cc(C)c(S(N)(=O)=O)c(C)c1-c1noc(C)c1-c1ccc(S(N)(=O)=O)cc1

# Reference: ChEMBL document CHEMBL1138763 (J Med Chem, 2004)
